Data as given in paper PMC9025336 (Antibiotics, 2022).
pKi: −log10 of the molar value. Peptide text beside a SMILES is read from it. * marks the point of attachment. Orn(α-tetramethylguanidino) = CN(C)C(=N[C@@H](CCCN)C(=O)*)N(C)C

Assays:
[1] = tested on: 70S ribosome, ribosomal binding site of Api805; test: Fluorescence polarization competition with cf-Api805; parameters: species or system Escherichia coli; conditions: Figure S2, twice in triplicate
Experimental: Ki was determined for ribosome extracts using cf-labeled and unlabeled peptides in ribosome preparation buffer. Black 384-well plates were prepared as described above. Unlabeled peptides or antibiotics (20 μL, 656 μmol/L) were added and 2-fold serially diluted in 23 wells in ribosome preparation buffer. […] The fluorescence polarization was measured on a […] microplate reader in the top read position (λexc = 485 nm, λem = 535 nm) in triplicate on at least two different days. […] Inhibition constants, Ki, were calculated as described by Mathias and Jung. page 9: 140 140 120 120 100 100 80 80 60 60 40 40 […]. […]. […] 0 0 -20 -20 10 -2 1 10 2 10 4 10 6 10 -2 1 10 2 10 4 10 6 Pept ide Concent r at ion [ nM] Pept ide Concent r at ion [ nM] 140 140 120 120 100 100 80 80 60 60 40 40 20 Chlor […] ol vs. […] -20 -20 10 -2 1 10 2 10 4 10 6 10 -2 1 10 2 10 4 10 6 Ant ibiot ic Concent r at ion [ nM] Antibiotic Concentration [nM] 140 120 100 80 60 40 […] -20 10 -2 1 10 2 10 4 10 6 Ant ibiot ic Concent r at ion [ nM] Figure S2. […] tested as control in competition with Api137 or erythromycin. Experiments were done twice in triplicates. Error bars show the standard deviation of all six replicates. The horizontal dotted line separates positive and negative ranges on the Y-axis. - S9 - (also on this page, place not known: […]

[2] = tested on: in vitro protein translation (GFP expression); test: In vitro translation assay (GFP fluorescence, PureExpress Delta RF123 kit); assay type: biochemical, Escherichia coli
Experimental: Next, we investigated whether Api805 inhibits protein translation in vitro by recording the fluorescence of expressed GFP (Figure 2). As Api137 inhibits protein translation by trapping release factors RF1 and RF2, the fluorescence was measured in the absence of release factor and in the presence of RF1 or RF2. We used a ribosome concentration of 2.4 µmol/L, which is ~[…] than the ribosome concentration in E. coli. […] Furthermore, RF2 of PureExpress® was isolated from an E. coli K-12 strain that carries an A246T substitution, reducing its susceptibility to apidaecin [15, 23]. The inhibition was measured for peptide concentrations of 0.05, 5, and 50 µmol/L relative to the fluorescence obtained without a PrAMP (100%).
GFP was expressed using an NEB PureExpress Delta RF123 kit (New England Biolabs, Ipswich, MA, USA). The sfGFP DNA template coding for a UAA stop codon was amplified from the pY71sfGFP plasmid by PCR using sfGFP primers (Table S3). Release factor 1 (RF1) included in the kit was 50-fold diluted (v/v) in freshly prepared 1x pure system buffer (PSB, 1 mol/L magnesium acetate, 0.5 mol/L K3PO4 (pH 7.3), 1 mol/L potassium glutamate, 1 mol/L NH4Cl, 0.5 mol/L CaCl2, 1 mol/L spermidine, 0.1 mol/L putrescine, 0.1 mol/L DTT). GFP was expressed in a freshly prepared mixture of kit solution A (2 µL), kit solution B (1.5 µL), 50-fold diluted RF1 (0.5 µL), sfGFP template (0.1325 pmol, 35 ng) or water as control (0.25 µL), PSB (0.25 µL), and PrAMP (50, 5, 0.05 or 0 µmol/L) dissolved in water (0.5 µL). The reaction mixture was transferred into a black 384-well plate (flat bottom, Greiner Bio-One GmbH), covered with a lid, and incubated in a microplate reader (Gemini EM, Molecular Devices) at 37 °C for two hours. The fluorescence was recorded every 10 min (λexc = 485 nm, λem = 535 nm).

[3] = target: BW25113 ribosome extract, ribosomal binding site of Api137; test: Fluorescence polarization competition against cf-Api137 (Ki); parameters: species or system Escherichia coli; conditions: unlabeled PrAMP against cf-labeled Api137, calculated from IC50, 95% confidence interval in brackets
Experimental: E. coli BW25113 and E. coli Rosetta pLysS were cultivated in LB medium and harvested at an OD600 of ~4 by centrifugation (5000× g, 30 min, 4 °C). The cell pellets were washed by resuspension in ribosome preparation buffer (20 mmol/L Hepes-KOH, 6 mmol/L MgCl2, 30 mmol/L NH4Cl, pH 7.6, 4°C) and subsequent centrifugation (5000× g, 30 min, 4 °C). Cell pellets were suspended in ribosome preparation buffer ([…]) containing freshly added 2-mercapotethanol (4 mmol/L). Lysozyme was added to the resuspended cells and incubated on ice for 30 min. The cell suspension was disrupted six times using a FastPrep-24^TM 5G instrument (MP Biomedicals, Solon, OH, USA) with BigPrep 50 mL setting (40 s, 4.0 m/s), incubated with DNase I (5 mL/L) on ice for one hour and centrifuged (16,000× g, 30 min, 4 °C). The cell debris was removed from the supernatant by centrifugation (32,000× g, 60 min, 4 °C), and the supernatant was centrifuged again (165,000× g, 17 h, 4 °C). The pellet was resuspended in ribosome preparation buffer (0.1 mL per g cell pellet) to obtain the 70S ribosome extract and stored at −80 °C. The ribosome concentration was estimated by recording the absorbance at 260 nm (1 AU for a ribosome concentration of 28 nmol/L). The molecular weight of the 70S E. coli ribosome was assumed to be 2.3 MDa.
Ki was determined for ribosome extracts using cf-labeled and unlabeled peptides in ribosome preparation buffer. Black 384-well plates were prepared as described above. Unlabeled peptides or antibiotics (20 µL, 656 µmol/L) were added and 2-fold serially diluted in 23 wells in ribosome preparation buffer. A ribosome solution was prepared by adjusting the ribosome concentration to ~90% of the upper Kd plateau obtained for the cf-labeled peptide to be studied and added to each well (10 µL). […] The fluorescence polarization was measured on a PARADIGMTM microplate reader in the top read position (λexc = 485 nm, λem = 535 nm) in triplicate on at least two different days. […] Inhibition constants, Ki, were calculated as described by Mathias and Jung.

[4] = highest peptide concentration (50 µmol/L), relative to fluorescence without PrAMP, 37 °C, 2 h, twice in duplicate

SMILES	inhibition of the binding of cf-labeled Api805 [1]	inhibition of protein translation in the absence of RF1, in words ([2]; GFP fluorescence, Figure 2)	inhibition of protein translation in the presence of RF1 [2, 4]	pKi [3]	inhibition of protein translation in the absence of RF1 [2, 4]
CC[C@H](C)[C@H](NC(=O)[C@H](Cc1ccc(O)cc1)NC(=O)[C@@H](NC(=O)[C@@H]1CCCN1C(=O)[C@H](CCCNC(=N)N)NC(=O)[C@H](CC(N)=O)NC(=O)[C@H](CC(N)=O)NC(=O)[C@H](CCCN)N=C(N(C)C)N(C)C)C(C)C)C(=O)N1CCC[C@H]1C(=O)N[C@@H](CCCNC(=N)N)C(=O)N1CCC[C@H]1C(=O)N[C@@H](CCCNC(=N)N)C(=O)N1CCC[C@H]1C(=O)N1CCC[C@H]1C(=O)N[C@@H](Cc1c[nH]cn1)C(=O)N1CCC[C@H]1C(=O)N[C@@H](CCCNC(=N)N)C(=O)N[C@@H](CC(C)C)C(=O)O [Api137] ({Orn(α-tetramethylguanidino)}-NNRPVYIPRPRPPHPRL-OH)	none inhibited	only a slight inhibition	~ 77%	8.70	
CC[C@H](C)[C@H](NC(=O)[C@@H]1CCCN1C(=O)[C@H](CCCNC(=N)N)NC(=O)[C@H](CC(N)=O)NC(=O)[C@H](CC(N)=O)NC(=O)CN)C(=O)N[C@@H](Cc1ccc(O)cc1)C(=O)N[C@H](C(=O)N1CCC[C@H]1C(=O)N[C@@H](CCCNC(=N)N)C(=O)N1CCC[C@H]1C(=O)N[C@@H](CCCNC(=N)N)C(=O)N1CCC[C@H]1C(=O)N1CCC[C@H]1C(=O)N[C@@H](Cc1c[nH]cn1)C(=O)N1CCC[C@H]1C(=O)N[C@@H](CCCNC(=N)N)C(=O)N1CCC[C@H]1C(=O)N[C@H](C(=O)N[C@@H](CCCNC(=N)N)C(=O)N[C@H](C(=O)O)C(C)C)[C@@H](C)CC)[C@@H](C)CC [Api805] (H-GNNRPIYIPRPRPPHPRPIRV-OH; N-terminus assumed)	did not inhibit		~ 52%	5.97	~ 38%
